Laboratory results as given in patent publication US10976312B2, “Compositions and methods for capture of cellular targets of bioactive agents” (Promega Corporation, priority 2012, dated 2021).
Values joined by “and” are separate entries in the source; they are usually repeats but may differ in a detail not shown here. Equal entries are not always repeated.

How the values were obtained:
[1] = target: T1, NANOLUC-p38 fusion protein (Homo sapiens, UniProt Q16539); test: HALOTAG dimer / HALOLINK plate capture of NANOLUC-p38 from cell lysates (Example 2); assay type: binding; conditions: cells treated with drug, listed as BIRB-chloroalkane
T1 construct: expressed in transfected cells
T1 sequence (Q16539 whole entry, the tested form may be a part): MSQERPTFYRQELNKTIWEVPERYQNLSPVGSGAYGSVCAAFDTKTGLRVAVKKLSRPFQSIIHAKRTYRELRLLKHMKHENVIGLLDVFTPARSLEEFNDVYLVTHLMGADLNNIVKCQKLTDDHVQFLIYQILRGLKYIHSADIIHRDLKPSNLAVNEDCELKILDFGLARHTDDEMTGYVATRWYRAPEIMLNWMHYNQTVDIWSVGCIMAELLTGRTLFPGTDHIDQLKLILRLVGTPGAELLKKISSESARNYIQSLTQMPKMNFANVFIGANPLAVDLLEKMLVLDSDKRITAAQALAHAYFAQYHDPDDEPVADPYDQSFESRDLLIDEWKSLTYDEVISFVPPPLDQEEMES
Protocol: Different amounts of a HALOTAG protein dimer (dimer of SEQ ID NO: 1) were added to cell lysates expressing a NANOLUC-p38 fusion protein (e.g., reporter/cellular-target fusion) which have or have not been treated with BIRB-chloroalkane (e.g., bioactive-agent/capture-ligand conjugate) as shown in Table 1. After 15 minute incubation, the samples were placed into wells of white, 96-well polystyrene plates activated with HALOTAG ligand (HALOLINK plates; Promega Corp.) and further incubated for 45 minutes. The wells were then washed PBS+0.05% Tween-20 (PBST). Then, 50 ul PBS followed by 50 ul of NANOGLO luciferase detection reagent was added to the wells, and luminescence measured.
Table 2 indicates differences in luminescence in samples with and without HALOTAG dimer (e.g., dimer of SEQ ID NO: 1) that indicate specific pull-down of the NANOLUC-p38 fusion protein.

[2] = target: T2, NANOLUC-p38 alpha fusion protein (Homo sapiens, UniProt Q16539); test: Pull-down of NANOLUC-p38 alpha fusion from HEK293 cell lysates (Example 5); assay type: binding; conditions: 1 μM conjugate, HEK293 cell lysate
T2 construct: expressed in transfected cells; host or cells: HEK293
T2 sequence (Q16539 whole entry, the tested form may be a part): as above
Protocol: In this example, BIRB-chloroalkane conjugate (PBI-4834) and BIRB chloroalkane conjugate containing a cleavable linker (PBI-5131) were utilized to pull-down a NANOLUC-p38 alpha fusion protein from HEK293 cell lysates. Lysate of cells expressing NANOLUC-p38 fusion were incubated with 1 μM PBI-4834 or PBI-5131 (final concentration) while control lysates were not treated with the conjugated drugs. Following equilibration binding for 2 h, the lysates were transferred to wells of a 96-well plate containing 0.5 μl settled paramagnetic HALOTAG protein beads and incubated with shaking for 45 min. Following binding the unbound fraction was removed, the HALOTAG protein paramagnetic beads were washed 3×, and the captured NANLUC-p38 alpha fusion specifically released from the beads by one of two methods: • 1. 150 μM unconjugated BIRB796 was used to compete for binding with the conjugated BIRB796 on the NANOLUC-p38 alpha fusion for 60 min. • 2. The NANOLUC-p38 alpha fusion was rapidly released through 10 min chemical cleavage of the chloroalkane linker with 10 mM of sodium hydrosulfite (PBI-5131 is a chloroalkane cleavable linker).

[3] = target: T2, NANOLUC-p38 alpha fusion protein; test: Pull-down of NANOLUC-p38 alpha fusion from living HEK293 cells onto HALOTAG protein beads (Example 3); assay type: cell-based
Protocol: HEK293 cells in wells of a 96-well plate were transfected using PEI with plasmid DNA encoding NANOLUC-p38 fusion. Twenty-four hours post-transfection, cells were incubated with a final concentration of 10 μM PBI-4834 while control cells were not treated with the conjugated drug. Following equilibrium binding of 2 hours, the media was removed, cells were quickly washed with PBS and lysed in a detergent-based lysis buffer for 10 minutes. The cell lysates were then transferred to wells of a 96-well plate which contained 0.5 μl settled paramagnetic HALOTAG protein beads (Promega Corp.) and incubated with shaking for 15-45 minutes. Following binding, the unbound fraction was removed and the HALOTAG protein paramagnetic beads were washed. 150 uM unconjugated BIRB796 was then added and the captured NANOLUC-p38 alpha fusion was specifically released from the beads by competition with the unconjugated BIRB796 for 60 minutes. The released NANOLUC-p38 alpha fusion protein (+PBI-4834) and control (−PBI4834) was detected using NANOGLO luciferase reagent (Promega Corp.).

[4] = target: T3, p38 alpha (Homo sapiens, UniProt Q16539); test: Endogenous target pull-down from HEK293 cells, western blot and mass spec (Example 8); assay type: cell-based; conditions: 10 uM conjugate, listed as BIRB-CA
T3 construct: isolate, e.g., pull-down, endogenous targets from cells; endogenous in cells; host or cells: HEK293
T3 sequence (Q16539 whole entry): as the sequence (Q16539 whole entry, the tested form may be a part) above
Protocol: HEK293 cells were plated in a 6 well plate (2.5×10^5 cells). 48 hours post plating, a final concentration of 10 uM of BIRB-chloroalkane (PBI-4834) was added to 2 wells while control cells were not treated with the drug conjugate. Following equilibrium binding for 2 h, the media was removed, and the cells were quickly washed with PBS and lysed in detergent-based lysis buffer for 10 min. Cell lysates were then transferred to an Eppendorf® tube containing 12.5 ul of settled paramagnetic HALOTAG protein beads and incubated with shaking for 15 min. Following binding, the unbound fraction was removed, the HALOTAG protein paramagnetic beads washed 3×, and the captured targets specifically released from the beads by competition with 150 μM unconjugated BIRB796 for 60 min. The released targets were subjected to mass spec analysis as well as western blot analysis using an anti-p38 alpha antibody (Abcam).

Q: For CC(C)(C)c1cc(NC(=O)Nc2ccccc2)n(-c2cccc(CNC(=O)CNC(=O)OCCOCCOCCOC(=O)NCCOCCOCCCCCCCl)c2)n1 [PBI-4834], which “luminescence (captured NANOLUC-p38)” value ([1]; 2 ug/well HALOTAG dimer) is on record?
A: 236900 and 397958 and 431167

Q: And the “luminescence (captured NANOLUC-p38)” value ([1]; 6 ug/well HALOTAG dimer)?
A: 401205 and 538956 and 596504

Q: What about the “luminescence (captured NANOLUC-p38)” value ([1]; 8 ug/well HALOTAG dimer) of the same molecule?
A: 395510 and 526903 and 610628

Q: What about the “luminescence (captured NANOLUC-p38)” value ([1]; No HALOTAG dimer) of the same molecule?
A: 278085 and 275690 and 443682

Q: And the “pull-down efficiency of NANOLUC-p38 alpha” value [2]?
A: significantly higher compared to PBI-5131

Q: What about the “expressed fusion specifically captured to the beads” value ([3]; 10 μM conjugate, HEK293 cells, HALOTAG protein beads) of the same molecule?
A: 1%

Q: And the “signal over background of capture” value ([3]; within 15 minutes of capture on HALOTAG protein beads)?
A: high signal over background

Q: And the “pull-down of endogenous p38 alpha” value [4]?
A: specific pull down of p38
